Assay results published in PMC7568863 (Chemical biology & drug design, 2020).

Legend:
[1] = test system: SKMEL28 melanoma cell line; experiment: Cell apoptosis assay; format: cell-based; conditions: IncuCyte Cytotox Green, Total Green Object Integrated Intensity; 30 h post-treatment; triplicates; preliminary assay
Bfl-1 = conditions: ref Barile et al., 2017; cited from earlier work

## CC1(C)CCC(CN2CCN(c3ccc(C(=O)NS(=O)(=O)c4ccc(NCC5CCOCC5)c([N+](=O)[O-])c4)c(Oc4cnc5[nH]ccc5c4)c3)CC2)=C(c2ccc(Cl)cc2)C1 [ABT199]
[1]
  Induction of apoptosis / cell death in SKMEL28 cells: inactive at the concentrations tested
Bfl-1
  Activity against Bfl-1: inactive against Bfl-1
